# Assay results reported in patent US20250154138A1, “Small Molecule IL-17A Modulators” (BeiGene, Ltd., priority 2022, published 2025).
# Read-outs that look alike come from different tables or passages of the source.
# How the values were obtained:
# [1] = system: IL-17-induced GROα secretion from HT-29 cells; assay: GROα release assay in human colorectal adenocarcinoma epithelial cell (HT-29, ELISA); format: cell-based; details: 10 ng/mL IL-17A, highest concentration 10 μM, read-out: Cellular assay HT29 cell/CXCL1 IC50
# Experimental: The purpose of the assay is to test the ability of a compound to neutralize IL17A proteins. IL17 can stimulate human epithelial cells to secrete GROα. The ability of one compound of the invention to neutralize IL-17-induced GROα secretion from the human colorectal adenocarcinoma epithelia cell line HT-29 is tested in this assay.
# HT-29 cells (human colorectal adenocarcinoma epithelia cell, ATCC) were stimulated with IL-17A (Novoprotein, #C774) in final concentration of 10 ng/mL. The resultant GROα response was measured using an ELISA kit from Invitrogen (#88-52122). HT-29 cells were cultured in complete medium (McCoy's 5A medium+10% FBS) and maintained in a tissue culture flask using standard techniques. On day 1, detached the cell by using TrypLE (Gibco, #12605036) and used the complete medium to neutralize. The cells were centrifuged at 11,00 rmp for 4 minutes. Re-suspended the cell pellet in complete medium and seeded 50,000 HT-29 cells into the 96-well assay plate (Corning, 3599) at 135 μL complete medium per well. The cells were incubated for overnight, at 37° C./5% CO2 to adherent the plate. On day 2, prepared a 4-fold serial dilution of the tested compound in DMSO. The highest concentration of the compound was 10 μM. Transferred 2 μL of the serial diluted compound from the serial dilution plate into the reagent plate which was contained 198 μL complete medium with 100 ng/mL IL-17A per well. The compounds were incubated with the IL-17A for 15 minutes. 15 μL mixtures from reagent plate were transferred into the cell assay plate. Incubated the plate at 37° C./5% CO2 for 48 hours. After the incubation, on day 4, GROα level were measured with GROα ELISA as the manufacturer's instructions. 50 μL supernatant was collected form the assay plate to ELISA plate. ELISA plate was read at 450 nm on a microplate reader and compared to a standard calibration curve.
# Data were processed using GraphPad Prism. GROα concentration was calculated from the standard curve. IC50 was determined using the equation log concentration (inhibitor) against response and fitted to four parameters.
# [2] = target: human IL-17A / human IL-17RA (Homo sapiens (Human), UniProt Q16552); assay: Human IL-17A biochemical assay (HTRF, blocking of IL-17A binding to IL-17RA); details: 0.4 nM IL-17A, 0.3 nM IL-17RA, max compound concentration 10 uM
# human IL-17A / human IL-17RA, sequence (Q16552 24-155): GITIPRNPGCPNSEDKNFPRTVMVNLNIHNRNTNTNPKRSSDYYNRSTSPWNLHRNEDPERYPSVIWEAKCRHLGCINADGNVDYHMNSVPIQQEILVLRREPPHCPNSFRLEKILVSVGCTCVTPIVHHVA
# Experimental: Compounds disclosed herein were tested for blocking of human IL-17A (Cat: C774, novoprotein) protein with its receptor human IL-17RA (Cat: C153, novoprotein) in an assay based on Homogeneous Time Resolved Fluorescence. 0.4 nM recombinant human IL-17A protein was pre-incubated with a serial dilution of compounds disclosed herein (maximum concentration is 10 uM, 2.7-fold serially diluted, 10 points) at room temperature for 3 hours in an assay buffer containing 20 mM HEPES, pH 7.5, 50 mM NaCl, 0.1% BSA, 0.2 mM DTT, 0.005% Tween 20. Then 0.3 nM recombinant human IL-17RA was added to plate and further incubated at room temperature for 1 hour. After that Mab Anti-6His Tb cryptate Gold (Cat: 61HI2TLB, Cisbio Bioassays) and MAb Anti Human IgG-XL665 (Cat: 61HFCXLB, Cisbio Bioassays) were added to plate and further incubated at room temperature for 1 hour. The HTRF signals (ex337 nm, em620 nm/665 nm) were read on BMG PHERAstar FSX instrument. The inhibition percentage of human IL-17A interaction with its receptor human IL-17RA in presence of increasing concentrations of compounds was calculated based on the ratio of […]. The IC50 for each compound was derived from fitting the data to the four-parameter logistic equation by Dotmatics.
Structure (SMILES),"IC50 ([1]; Homo sapiens, HT-29, 48 h)",IC50 [2],IC50 ([1]; 48 hours)
"CNC(=O)C1(N2CC(C)NC2=O)Cc2ccc(NC(=O)[C@@H](NC(=O)c3ccnn3C)C3CCCCC3)cc2C1 (stereo partly drawn) [Example 1, N-((1S)-1-cyclohexyl-2-((2-(4-methyl-2-oxoimidazolidin-1-yl)-2-(methylcarbamoyl)-2,3-dihydro-1H-inden-5-yl)amino)-2-oxoethyl)-1-methyl-1H-pyrazole-5-carboxamide]",898 nM,379 nM,–
"COCC1(N2CC(C)NC2=O)Cc2ccc(NC(=O)[C@@H](NC(=O)c3ccnn3C)C3CCCCC3)cc2C1 (stereo partly drawn) [Example 2, N-((1S)-1-cyclohexyl-2-((2-(methoxymethyl)-2-(4-methyl-2-oxoimidazolidin-1-yl)-2,3-dihydro-1H-inden-5-yl)amino)-2-oxoethyl)-1-methyl-1H-pyrazole-5-carboxamide]",2560 nM,1100 nM,–
"CC1CN(C2Cc3ccc(NC(=O)[C@@H](NC(=O)c4ccnn4C)C4CCCCC4)cc3C2)C(=O)N1 (stereo partly drawn) [Example 3, N-((1S)-1-cyclohexyl-2-((2-(4-methyl-2-oxoimidazolidin-1-yl)-2,3-dihydro-1H-inden-5-yl)amino)-2-oxoethyl)-1-methyl-1H-pyrazole-5-carboxamide]",8430 nM,3190 nM,–
"CNC(=O)C1(N2CC(C)NC2=O)Cc2cc3nc([C@@H](NC(=O)c4ccnn4C)C4CCCCC4)[nH]c3cc2C1 (stereo partly drawn) [Example 5, 2-((S)-cyclohexyl(1-methyl-1H-pyrazole-5-carboxamido)methyl)-N-methyl-6-(4-methyl-2-oxoimidazolidin-1-yl)-1,5,6,7-tetrahydroindeno[5,6-d]imidazole-6-carboxamide]",353 nM,410 nM,–
"CNC(=O)C1(N2CC(C)NC2=O)Cc2cc(NC(=O)[C@@H](NC(=O)c3ccnn3C)C3CCCCC3)sc2C1 (stereo partly drawn) [Example 9, N-((1S)-1-cyclohexyl-2-((5-(4-methyl-2-oxoimidazolidin-1-yl)-5-(methylcarbamoyl)-5,6-dihydro-4H-cyclopenta[b]thiophen-2-yl)amino)-2-oxoethyl)-1-methyl-1H-pyrazole-5-carboxamide]",> 10000 nM,8000 nM,–
"CC1CN(Cc2cc3cc(NC(=O)[C@@H](NC(=O)c4ccnn4C)C4CCCCC4)ccc3o2)C(=O)N1 (stereo partly drawn) [Example 11, N-((1S)-1-cyclohexyl-2-((2-((4-methyl-2-oxoimidazolidin-1-yl)methyl)benzofuran-5-yl)amino)-2-oxoethyl)-1-methyl-1H-pyrazole-5-carboxamide]",6520 nM,1700 nM,–
"CC1CN(Cc2cc3cc(NC(=O)[C@@H](NC(=O)c4ccnn4C)C4CCCCC4)ccc3[nH]2)C(=O)N1 (stereo partly drawn) [Example 12, N-((1S)-1-cyclohexyl-2-((2-((4-methyl-2-oxoimidazolidin-1-yl)methyl)-1H-indol-5-yl)amino)-2-oxoethyl)-1-methyl-1H-pyrazole-5-carboxamide]",> 10000 nM,13000 nM,–
"CNC(=O)C1(N2CCNC2=O)Cc2ccc(NC(=O)[C@@H](NC(=O)c3ccnn3C)C3CCCCC3)cc2C1 (stereo partly drawn) [Example 13, N-((1S)-1-cyclohexyl-2-((2-(methylcarbamoyl)-2-(2-oxoimidazolidin-1-yl)-2,3-dihydro-1H-inden-5-yl)amino)-2-oxoethyl)-1-methyl-1H-pyrazole-5-carboxamide]",1500 nM,1800 nM,–
"CNC(=O)C1(N2CC(C)NC2=O)Cc2cc3nc([C@@H](NC(=O)c4nonc4C)C4CCCCC4)[nH]c3cc2C1 (stereo partly drawn) [Example 14, N-((1S)-cyclohexyl(6-(4-methyl-2-oxoimidazolidin-1-yl)-6-(methylcarbamoyl)-1,5,6,7-tetrahydroindeno[5,6-d]imidazol-2-yl)methyl)-4-methyl-1,2,5-oxadiazole-3-carboxamide]",300 nM,150 nM,–
"CC1CN(C2(C(N)=O)Cc3ccc(NC(=O)[C@@H](NC(=O)c4ccnn4C)C4CCCCC4)cc3C2)C(=O)N1 (stereo partly drawn) [Example 15, N-((1S)-2-((2-carbamoyl-2-(4-methyl-2-oxoimidazolidin-1-yl)-2,3-dihydro-1H-inden-5-yl)amino)-1-cyclohexyl-2-oxoethyl)-1-methyl-1H-pyrazole-5-carboxamide]",1240 nM,550 nM,–
"CNC(=O)C1(N2C(=O)NCC2C)Cc2ccc(NC(=O)[C@@H](NC(=O)c3ccnn3C)C3CCCCC3)cc2C1 (stereo partly drawn) [Example 17, N-((1S)-1-cyclohexyl-2-((2-(5-methyl-2-oxoimidazolidin-1-yl)-2-(methylcarbamoyl)-2,3-dihydro-1H-inden-5-yl)amino)-2-oxoethyl)-1-methyl-1H-pyrazole-5-carboxamide]",2640 nM,2500 nM,–
"CC[C@H]1CN(C2(C(=O)NC)Cc3ccc(NC(=O)[C@@H](NC(=O)c4ccnn4C)C4CCCCC4)cc3C2)C(=O)N1 (stereo partly drawn) [Example 18, N-((1S)-1-cyclohexyl-2-((2-((S)-4-ethyl-2-oxoimidazolidin-1-yl)-2-(methylcarbamoyl)-2,3-dihydro-1H-inden-5-yl)amino)-2-oxoethyl)-1-methyl-1H-pyrazole-5-carboxamide]",2550 nM,1000 nM,–
"CC[C@@H]1CN(C2(C(=O)NC)Cc3ccc(NC(=O)[C@@H](NC(=O)c4ccnn4C)C4CCCCC4)cc3C2)C(=O)N1 (stereo partly drawn) [Example 19, N-((1S)-1-cyclohexyl-2-((2-((R)-4-ethyl-2-oxoimidazolidin-1-yl)-2-(methylcarbamoyl)-2,3-dihydro-1H-inden-5-yl)amino)-2-oxoethyl)-1-methyl-1H-pyrazole-5-carboxamide]",262 nM,60 nM,–
"CNC(=O)C1(N2CC(C)(C)NC2=O)Cc2ccc(NC(=O)[C@@H](NC(=O)c3ccnn3C)C3CCCCC3)cc2C1 (stereo partly drawn) [Example 20, N-((1S)-1-cyclohexyl-2-((2-(4,4-dimethyl-2-oxoimidazolidin-1-yl)-2-(methylcarbamoyl)-2,3-dihydro-1H-inden-5-yl)amino)-2-oxoethyl)-1-methyl-1H-pyrazole-5-carboxamide]",476 nM,980 nM,–
"CC1CN(C2(CO)Cc3ccc(NC(=O)[C@@H](NC(=O)c4ccnn4C)C4CCCCC4)cc3C2)C(=O)N1 (stereo partly drawn) [Example 22, N-((1S)-1-cyclohexyl-2-((2-(hydroxymethyl)-2-(4-methyl-2-oxoimidazolidin-1-yl)-2,3-dihydro-1H-inden-5-yl)amino)-2-oxoethyl)-1-methyl-1H-pyrazole-5-carboxamide]",7120 nM,950 nM,–
"COc1ccccc1NCC1(N2CC3(CC3)CNC2=O)Cc2ccc(NC(=O)[C@@H](NC(=O)c3ccnn3C)C3CCCCC3)cc2C1 (stereo partly drawn) [Example 173, N-((1S)-1-cyclohexyl-2-((2-(((2-methoxyphenyl)amino)methyl)-2-(6-oxo-5,7-diazaspiro[2.5]octan-5-yl)-2,3-dihydro-1H-inden-5-yl)amino)-2-oxoethyl)-1-methyl-1H-pyrazole-5-carboxamide]",153 nM,–,–
"Cc1nonc1C(=O)N[C@H](C(=O)Nc1ccc2c(c1)CC(N1C[C@@H](C(C)C)NC1=O)(C(C)(O)C(F)(F)F)C2)C(C1CC1)C1CC1 (stereo partly drawn) [Example 250, N-((2S)-1,1-dicyclopropyl-3-((2-((R)-4-isopropyl-2-oxoimidazolidin-1-yl)-2-(1,1,1-trifluoro-2-hydroxypropan-2-yl)-2,3-dihydro-1H-inden-5-yl)amino)-3-oxopropan-2-yl)-4-methyl-1,2,5-oxadiazole-3-carboxamide]",190 nM,–,271 nM
